The record followed here is patent US20100035993A1, “METHODS AND COMPOSITIONS COMPRISING 2-[(3-CHLOROPHENYL) AMINO] PHENYLACETIC ACID FOR HYPERPERMEABILITY AND NEOVASCULARIZATION DISORDERS OF THE RETINA” (priority 2008, published 2010).

The test system of one assay is PEDF. In words: PEDF in vitreous of streptozotocin-diabetic rats, immunoassay. It counts as in vivo, rat. The note with it: vitreous of male streptozotocin-diabetic rats treated for 26 weeks with 15 mg/kg/day by gavage; Normal Control 15.3, Diabetic Control 4.6. The method, then:
(§1) Vitreous was harvested from male rats that were rendered diabetic by intravenous injection of streptozotocin and that were treated for 26 weeks with 23CPPA (15 mg/kg/day) administered by gavage, and from age and gender matched diabetic and nondiabetic control rats. PEDF and VEGF were measured by immunoassay. The relative ratio of VEGF to PEDF in diabetic control rats and diabetic rats treated with 23CPPA was compared to that in nondiabetic control rats which was assigned an arbitrary value of 1.0.

In a further assay the test system is VEGF. Description: VEGF in vitreous of streptozotocin-diabetic rats, immunoassay. It counts as in vivo, rat. The note with it: vitreous of male streptozotocin-diabetic rats treated for 26 weeks with 15 mg/kg/day by gavage; Normal Control 75, Diabetic Control 167. Here is the method: as §1

In the assay on PEDF, `O=C(O)Cc1ccccc1Nc1cccc(Cl)c1` [23CPPA, 2-[(3-chlorophenyl)amino]phenylacetic acid] returned a PEDF of 8.7 ng/mL. This compound also registered a VEGF with VEGF of 105 pg/mL.
